Consider two compounds from publication PMC9411704, “Assessment of the Carcinogenic Potential of Pretomanid in Transgenic Tg.rasH2 Mice” (International Journal of Toxicology, 2022).

A short description of data set [1]: Mass balance study in humans using 14C-labelled pretomanid. Type of data set: in vivo. The note with it: human, plasma, oral; 6% of the pretomanid therapeutic AUC0-24, 200 mg/day; read-out: Estimated human AUC0-24 of M50.
On the set-up of data set [2]: method as in unpublished data. As to conditions: humans, 14C-labelled pretomanid; ref unpublished data; cited from earlier work.
In data set [3] the test system is mouse lymphoma cells. As to the kind of experiment: Non-GLP in vitro mouse lymphoma assay. It is filed as cell-based. The note with it: concentrations up to 1000 μg/mL, data not shown.

On to `O=[N+]([O-])c1cn2c(n1)OC[C@@H](O)C2` [M50], for which the AUC(0-t) in data set [1] is approximately 3000 ng·h/mL. The “M50 metabolite as % of the parent compound” value in data set [2] is reported as approximately 6%. For `O=[N+]([O-])c1cn2c(n1)OC[C@@H](OCc1ccc(OC(F)(F)F)cc1)C2` [Pretomanid, (6S)-2-nitro-6-{[4-(trifluoromethoxy)benzyl]oxy}-6,7-dihydro-5H-imidazo[2,1-b][1,3]oxazine], the “Genotoxicity in mouse lymphoma assay” value in data set [3] is reported as “negative”.
